# The supplement of paper PMC8671470
# ± gives the standard deviation of the averaged measurements.
# Assays:
# Details in all cases: 72 h
# [1] = tested on: KU-812
# Procedure, shortened: (§1)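 For the IC50, dose–response curves were fitted with a log-logistic model. The data came from fifteen myeloid leukaemia cell lines grown in RPMI 1640 at densities in the linear growth range and incubated in 384-well plates for 72 h at 37 °C under 5% CO2. Doses were five tenfold steps from 1 to 10,000 nM in duplicate, and luminescent ATP viability was normalised to vehicle and to a positive control at 10 µM before four-parameter fitting.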
# [2] = tested on: NOMO-1
# Procedure, shortened: as §1
# [3] = tested on: MV4-11
# Procedure, shortened: as §1
# [4] = tested on: K-562
# Procedure, shortened: as §1
# [5] = tested on: Mono-Mac-6
# Procedure, shortened: as §1
# [6] = tested on: HL-60; assay: cell viability (% survival relative to DMSO control); higher = less cytotoxic
# Procedure, shortened: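 A rescreen of the full library used HL-60 cells in RPMI 1640 with 10% FBS on 384-well plates, run in duplicate at five tenfold concentrations (1–10,000 nM). Each screen included DMSO or 100 nM of one of three metabolic inhibitors and ran 72 h at 37 °C, 5% CO2. CellTiter-Glo viability was scaled between DMSO and 10 μM proteasome-inhibitor wells. Any area under the curve comes from four-parameter log-logistic fits with drc and PharmacoGx.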
# [7] = tested on: KU-812; assay: cell viability (% survival relative to DMSO control, bortezomib = 0%); higher = less cytotoxic
# Procedure, shortened: (§2)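 Fifteen myeloid leukaemia cell lines (10 AML, 5 CML) were seeded at a density titrated to the linear growth range into 384-well plates pre-printed with compounds at 1, 10, 100, 1000 or 10000 nM in duplicate. Plates were incubated for 72 h at 37 °C with 5% CO2. Viability was then read by CellTiter-Glo luminescence. Each value is percent survival averaged over the duplicates, with vehicle set to 100% and a 10 µM positive control to 0%.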
# [8] = tested on: ML-2; assay: as above
# Procedure, shortened: as §2
# [9] = tested on: NOMO-1; assay: as above
# Procedure, shortened: as §2
# [10] = tested on: KG-1; assay: as above
# Procedure, shortened: as §2
# [11] = tested on: MOLM-13; assay: as above
# Procedure, shortened: as §2
structure (smiles),measurement,setting,value
Cc1cc(C(=O)NNCc2ccccc2)no1 [Isocarboxazid],IC50 (cell viability),[1],> 10 µM
same,IC50 (cell viability),[2],> 10 µM
same,IC50 (cell viability),[3],> 10 µM
same,IC50 (cell viability),[4],> 10 µM
same,IC50 (cell viability),[5],> 10 µM
same,cell viability,"[6]; 0.001 µM, co-treatment: AZD3965 100 nM",103 ± 2.5%
same,cell viability,"[6]; 0.001 µM, co-treatment: DMSO vehicle",102 ± 8.1%
same,cell viability,"[6]; 0.001 µM, co-treatment: GSK2194069 100 nM",101 ± 4%
same,cell viability,"[6]; 0.001 µM, co-treatment: pictilisib 100 nM",102 ± 2.6%
same,cell viability,"[6]; 0.01 µM, co-treatment: AZD3965 100 nM",103 ± 6.9%
same,cell viability,"[6]; 0.01 µM, co-treatment: DMSO vehicle",101 ± 3.7%
same,cell viability,"[6]; 0.01 µM, co-treatment: GSK2194069 100 nM",102 ± 6%
same,cell viability,"[6]; 0.01 µM, co-treatment: pictilisib 100 nM",96.8 ± 7.7%
same,cell viability,"[6]; 0.1 µM, co-treatment: AZD3965 100 nM",94.9 ± 20%
same,cell viability,"[6]; 0.1 µM, co-treatment: DMSO vehicle",96.3 ± 7.4%
same,cell viability,"[6]; 0.1 µM, co-treatment: GSK2194069 100 nM",87 ± 17%
same,cell viability,"[6]; 0.1 µM, co-treatment: pictilisib 100 nM",86.6 ± 22%
same,cell viability,"[6]; 1 µM, co-treatment: AZD3965 100 nM",99.03 ± 0.43%
same,cell viability,"[6]; 1 µM, co-treatment: DMSO vehicle",99.7 ± 2%
same,cell viability,"[6]; 1 µM, co-treatment: GSK2194069 100 nM",102 ± 1.1%
same,cell viability,"[6]; 1 µM, co-treatment: pictilisib 100 nM",103 ± 3.1%
same,cell viability,"[6]; 10 µM, co-treatment: AZD3965 100 nM",101 ± 2.6%
same,cell viability,"[6]; 10 µM, co-treatment: DMSO vehicle",100 ± 1.7%
same,cell viability,"[6]; 10 µM, co-treatment: GSK2194069 100 nM",98.2 ± 5.2%
same,cell viability,"[6]; 10 µM, co-treatment: pictilisib 100 nM",90 ± 3.2%
same,cell viability,[7]; 1 nM,96.2%
same,cell viability,[7]; 10 nM,99.6%
same,cell viability,[7]; 100 nM,93.8%
same,cell viability,[7]; 1000 nM,93.9%
same,cell viability,[7]; 10000 nM,100%
same,cell viability,[8]; 1 nM,95%
same,cell viability,[8]; 10 nM,101%
same,cell viability,[8]; 100 nM,101%
same,cell viability,[8]; 1000 nM,90.4%
same,cell viability,[8]; 10000 nM,85.4%
same,cell viability,[9]; 1 nM,105%
same,cell viability,[9]; 10 nM,103%
same,cell viability,[9]; 100 nM,109%
same,cell viability,[9]; 1000 nM,112%
same,cell viability,[9]; 10000 nM,92%
same,cell viability,[10]; 1 nM,96.5%
same,cell viability,[10]; 10 nM,109%
same,cell viability,[10]; 100 nM,98.5%
same,cell viability,[10]; 1000 nM,108%
same,cell viability,[10]; 10000 nM,91.1%
same,cell viability,[11]; 1 nM,104%
same,cell viability,[11]; 10 nM,96.3%
same,cell viability,[11]; 100 nM,103%
same,cell viability,[11]; 1000 nM,106%
same,cell viability,[11]; 10000 nM,96.6%
